US10160747B2, “Compounds and methods for kinase modulation, and indications therefor” (Plexxikon Inc., priority 2016, dated 2018)
pIC50: −log10 of the molar value.

Assays:
[1] = test system: MOLM-14 F691L (endogenous FLT3 ITD and transfected FLT3 F691L); assay: MOLM-14 F691L cell proliferation assay (CellTiter-Glo); type: cell-based; details: Homo sapiens, MOLM-14, 72 h; 3 d growth, GMean
Text: (§1) The FLT3 inhibitors may be assessed using the MOLM-14, Acute Myeloid Leukemia cell line that endogenously expresses FLT3 ITD or derivatives of the human FLT3 AML cell line which acquired the D835Y (activation loop) of F691L (gatekeeper) mutation after selection in escalating doses of the FLT3 Inhibitor AC220. FLT3 inhibitors may also be assessed using cells that are engineered to express mutant FLT3. For engineered cells, murine Ba/F3 cells were transfected with full-length FLT3 ITD/D835Y mutations. The parental BA/F3 cells are dependent upon Interleukin-3 (IL-3) for survival, and introduction of the FLT3 constructs rendered these cells dependent upon FLT3 kinase activity when cultured in the absences of IL-3. Engineered BA/F3 cell growth assays can be performed in either the […] of IL-3, to assess the compound inhibition of FLT3 or to detect the presence of off-target activity, respectively. Inhibitors of FLT3 kinase activity reduce or eliminate the FLT3 oncogenic signaling, resulting in reduced cell proliferation. This inhibition is measured as a function of compound concentration to assess IC50 values.
(§2) Cell lines used in proliferation assays are as follows in Table 2:
(§3) Cells were seeded at 1×10^4 cells per well of a 96 well cell culture plate in 50 μl of cell culture medium. Compounds were dissolved in DMSO, typically at a concentration of 0.5 mM and were serially diluted 1:3 for a total of eight points and added to the cells to final concentrations of […], 0.0041, 0.0014 and 0.00046 μM in 100 μl cell culture medium (final concentration 0.2% DMSO). […] The cells were incubated at 37° C., 5% CO2 for three days. CellTiter-Glo Buffer (Promega Cell Viability Assay catalog #G7573) and substrate were equilibrated to room temperature, and enzyme/substrate Recombinant Firefly Luciferase/Beetle Luciferin was reconstituted. The cell plates were equilibrated to room temperature for 30 minutes, then lysed by addition of an equivalent volume of the Celltiter-Glo Reagent. The plate was mixed for 10 minutes on a plate shaker to lyse the cells. The plates were read on a Tecan M1000 using Luminescence protocol modified to read 0.1 s per well. The luminescence reading assesses the ATP content, which correlates directly with cell number such that the reading as a function of compound concentration was used to determine the IC50 value.

[2] = test system: MOLM-14 D835Y (endogenous FLT3 ITD and transfected FLT3 D835Y); assay: MOLM-14 D835Y cell proliferation assay (CellTiter-Glo); type: cell-based; details: Homo sapiens, MOLM-14, 72 h; 3 d growth, GMean
Text: as §1, §2, §3

BA/F3-FLT3-ITD + D835Y = biological target: T1, BA/F3-FLT3-ITD + D835Y (Homo sapiens, UniProt P36888, D835Y, cells depend on it, form not given); assay: Engineered BA/F3 cell growth assay, FLT3 ITD/D835Y; type: cell-based, murine; details: 3 d growth
T1 sequence (P36888 with tags, fused parts or gaps INS600HVDFREYEYD/D835Y): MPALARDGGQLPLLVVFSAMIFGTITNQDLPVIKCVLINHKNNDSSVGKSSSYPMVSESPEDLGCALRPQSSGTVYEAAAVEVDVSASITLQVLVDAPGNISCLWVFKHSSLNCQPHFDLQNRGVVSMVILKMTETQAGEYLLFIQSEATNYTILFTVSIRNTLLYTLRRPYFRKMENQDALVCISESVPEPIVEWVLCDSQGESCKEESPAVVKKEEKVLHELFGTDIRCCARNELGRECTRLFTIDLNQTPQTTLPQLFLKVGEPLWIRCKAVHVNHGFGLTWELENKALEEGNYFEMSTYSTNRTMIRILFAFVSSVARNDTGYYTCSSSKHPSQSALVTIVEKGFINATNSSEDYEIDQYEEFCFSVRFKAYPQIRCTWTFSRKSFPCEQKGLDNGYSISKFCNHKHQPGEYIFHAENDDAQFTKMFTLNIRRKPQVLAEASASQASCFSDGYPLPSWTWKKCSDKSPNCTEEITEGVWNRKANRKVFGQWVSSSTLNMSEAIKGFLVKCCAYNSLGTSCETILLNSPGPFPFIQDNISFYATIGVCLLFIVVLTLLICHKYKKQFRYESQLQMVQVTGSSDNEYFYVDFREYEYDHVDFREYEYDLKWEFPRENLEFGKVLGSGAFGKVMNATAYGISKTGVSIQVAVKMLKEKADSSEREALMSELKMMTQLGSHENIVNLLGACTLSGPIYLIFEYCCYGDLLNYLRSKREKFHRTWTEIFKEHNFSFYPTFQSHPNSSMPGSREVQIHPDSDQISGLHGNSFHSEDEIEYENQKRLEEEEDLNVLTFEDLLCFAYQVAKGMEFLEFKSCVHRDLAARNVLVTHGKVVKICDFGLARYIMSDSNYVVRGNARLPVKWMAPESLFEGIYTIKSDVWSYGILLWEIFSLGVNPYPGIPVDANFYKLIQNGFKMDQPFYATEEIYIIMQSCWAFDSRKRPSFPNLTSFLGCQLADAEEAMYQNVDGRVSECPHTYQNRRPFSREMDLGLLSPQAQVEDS
Text: as §1, §2, §3
The BaF3 assays as developed used to generate the data in Tables 7 and 8 are identical and differ only in minor details in regards to vector design, not biological function. Both introduce the FLT3 gene with MV4-11 based ITD duplications and resistance mutations from an exogenous promoter (MSCV and CMV respectively) in the exact same cell line.
As a result of the expressed FLT3 protein, the IL3 factor dependent BaF3 cell clones become IL3-factor independent.
The compounds in Tables 7 and 8 were tested in an identical fashion by incubating such clones in with increasing concentrations. Inhibition of the FLT3 activity by an inhibitor results in factor dependency, which in the absence of IL3 results in cell death in the three day growth assays.

COCC#Cc1cc2cc(-c3ccc(CC(=O)Nc4cnc(OC)c(C(F)(F)F)c4)cc3)cnc2[nH]1 [Compound P-0056, 2-[4-[2-(3-methoxyprop-1-ynyl)-1H-pyrrolo[2,3-b]pyridin-5-yl]phenyl]-N-[6-methoxy-5-(trifluoromethyl)-3-pyridyl]acetamide]
pIC50 [1]: 5.00 to 10.00 | pIC50 [2]: 5.00 to 10.00 | GI50 (BA/F3-FLT3-ITD + D835Y): 0.0001 to 10 µM

Cn1cc(Nc2ncc(-c3ccc(CC(=O)Nc4cc(C(C)(F)F)ccn4)c(F)c3)cn2)cn1 [Compound P-0093, N-[4-(1,1-difluoroethyl)-2-pyridyl]-2-[2-fluoro-4-[2-[(1-methylpyrazol-4-yl)amino]pyrimidin-5-yl]phenyl]acetamide]
pIC50 [1]: 5.00 to 10.00 | pIC50 [2]: 5.00 to 10.00 | GI50 (BA/F3-FLT3-ITD + D835Y): 0.0001 to 10 µM

Cn1cc(Nc2ncc(-c3ccc(CC(=O)Nc4ccnc(C(C)(C)C)c4)cc3)cn2)cn1 [Compound P-0112, N-(2-tert-butyl-4-pyridyl)-2-[4-[2-[(1-methylpyrazol-4-yl)amino]pyrimidin-5-yl]phenyl]acetamide]
pIC50 [1]: 5.00 to 10.00 | pIC50 [2]: 5.00 to 10.00 | GI50 (BA/F3-FLT3-ITD + D835Y): 0.0001 to 10 µM

Cn1cc(Nc2ncc(-c3ccc(CC(=O)Nc4ccc(C#N)c(C(F)(F)F)c4)cc3)cn2)cn1 [Compound P-0113, N-[4-cyano-3-(trifluoromethyl)phenyl]-2-[4-[2-[(1-methylpyrazol-4-yl)amino]pyrimidin-5-yl]phenyl]acetamide]
pIC50 [1]: 5.00 to 10.00 | pIC50 [2]: 5.00 to 10.00 | GI50 (BA/F3-FLT3-ITD + D835Y): 0.0001 to 10 µM

Cn1cc(Nc2ncc(-c3ccc(CC(=O)Nc4cnc(Cl)c(Cl)c4)cc3)cn2)cn1 [Compound P-0116, N-(5,6-dichloro-3-pyridyl)-2-[4-[2-[(1-methylpyrazol-4-yl)amino]pyrimidin-5-yl]phenyl]acetamide]
pIC50 [1]: 5.00 to 10.00 | pIC50 [2]: 5.00 to 10.00 | GI50 (BA/F3-FLT3-ITD + D835Y): 0.0001 to 10 µM

Cn1cc(Nc2ncc(-c3ccc(CC(=O)Nc4cnc(Cl)c(Br)c4)cc3)cn2)cn1 [Compound P-0117, N-(5-bromo-6-chloro-3-pyridyl)-2-[4-[2-[(1-methylpyrazol-4-yl)amino]pyrimidin-5-yl]phenyl]acetamide]
pIC50 [1]: 5.00 to 10.00 | pIC50 [2]: 5.00 to 10.00 | GI50 (BA/F3-FLT3-ITD + D835Y): 0.0001 to 10 µM

COc1ncc(NC(=O)Cc2ccc(-c3cnc(Nc4cnn(C)c4)nc3)cc2)cc1Br [Compound P-0118, N-(5-bromo-6-methoxy-3-pyridyl)-2-[4-[2-[(1-methylpyrazol-4-yl)amino]pyrimidin-5-yl]phenyl]acetamide]
pIC50 [1]: 5.00 to 10.00 | pIC50 [2]: 5.00 to 10.00 | GI50 (BA/F3-FLT3-ITD + D835Y): 0.0001 to 10 µM

Cn1cc(Nc2ncc(-c3ccc(CC(=O)Nc4cnc5[nH]ccc5c4)cc3)cn2)cn1 [Compound P-0119, 2-[4-[2-[(1-methylpyrazol-4-yl)amino]pyrimidin-5-yl]phenyl]-N-(1H-pyrrolo[2,3-b]pyridin-5-yl)acetamide]
pIC50 [1]: 5.00 to 10.00 | pIC50 [2]: 5.00 to 10.00 | GI50 (BA/F3-FLT3-ITD + D835Y): 0.0001 to 10 µM

Cc1n[nH]c2ncc(NC(=O)Cc3ccc(-c4cnc(Nc5cnn(C)c5)nc4)cc3)cc12 [Compound P-0120, N-(3-methyl-1H-pyrazolo[3,4-b]pyridin-5-yl)-2-[4-[2-[(1-methylpyrazol-4-yl)amino]pyrimidin-5-yl]phenyl]acetamide]
pIC50 [1]: 5.00 to 10.00 | pIC50 [2]: 5.00 to 10.00 | GI50 (BA/F3-FLT3-ITD + D835Y): 0.0001 to 10 µM

Cn1cc(Nc2ncc(-c3ccc(CC(=O)NCc4c(Cl)cccc4Cl)cc3)cn2)cn1 [Compound P-0123, N-[(2,6-dichlorophenyl)methyl]-2-[4-[2-[(1-methylpyrazol-4-yl)amino]pyrimidin-5-yl]phenyl]acetamide]
pIC50 [1]: 5.00 to 10.00 | pIC50 [2]: 5.00 to 10.00 | GI50 (BA/F3-FLT3-ITD + D835Y): 0.0001 to 10 µM

Cn1cc(Nc2ncc(-c3ccc(CC(=O)NCc4cc(F)ccc4Cl)cc3)cn2)cn1 [Compound P-0124, N-[(2-chloro-5-fluoro-phenyl)methyl]-2-[4-[2-[(1-methylpyrazol-4-yl)amino]pyrimidin-5-yl]phenyl]acetamide]
pIC50 [1]: 5.00 to 10.00 | pIC50 [2]: 5.00 to 10.00 | GI50 (BA/F3-FLT3-ITD + D835Y): 0.0001 to 10 µM

Cn1cc(Nc2ncc(-c3ccc(CC(=O)NCc4ccc(F)cc4Cl)cc3)cn2)cn1 [Compound P-0125, N-[(2-chloro-4-fluoro-phenyl)methyl]-2-[4-[2-[(1-methylpyrazol-4-yl)amino]pyrimidin-5-yl]phenyl]acetamide]
pIC50 [1]: 5.00 to 10.00 | pIC50 [2]: 5.00 to 10.00 | GI50 (BA/F3-FLT3-ITD + D835Y): 0.0001 to 10 µM

Cn1cc(Nc2ncc(-c3ccc(CC(=O)NCc4c(F)cccc4Cl)cc3)cn2)cn1 [Compound P-0127, N-[(2-chloro-6-fluoro-phenyl)methyl]-2-[4-[2-[(1-methylpyrazol-4-yl)amino]pyrimidin-5-yl]phenyl]acetamide]
pIC50 [1]: 5.00 to 10.00 | pIC50 [2]: 5.00 to 10.00 | GI50 (BA/F3-FLT3-ITD + D835Y): 0.0001 to 10 µM

Cn1cc(Nc2ncc(-c3ccc(CC(=O)NCc4cccc(C(F)(F)F)c4)cc3)cn2)cn1 [Compound P-0128, 2-[4-[2-[(1-methylpyrazol-4-yl)amino]pyrimidin-5-yl]phenyl]-N-[[3-(trifluoromethyl)phenyl]methyl]acetamide]
pIC50 [1]: 5.00 to 10.00 | pIC50 [2]: 5.00 to 10.00 | GI50 (BA/F3-FLT3-ITD + D835Y): 0.0001 to 10 µM

Cn1cc(Nc2ncc(-c3ccc(CC(=O)NCc4ccc(C(F)(F)F)cc4)cc3)cn2)cn1 [Compound P-0129, 2-[4-[2-[(1-methylpyrazol-4-yl)amino]pyrimidin-5-yl]phenyl]-N-[[4-(trifluoromethyl)phenyl]methyl]acetamide]
pIC50 [1]: 5.00 to 10.00 | pIC50 [2]: 5.00 to 10.00 | GI50 (BA/F3-FLT3-ITD + D835Y): 0.0001 to 10 µM

Cc1noc2ncc(NC(=O)Cc3ccc(-c4cnc(Nc5cnn(C)c5)nc4)cc3)cc12 [Compound P-0130, N-(3-methylisoxazolo[5,4-b]pyridin-5-yl)-2-[4-[2-[(1-methylpyrazol-4-yl)amino]pyrimidin-5-yl]phenyl]acetamide]
pIC50 [1]: 5.00 to 10.00 | pIC50 [2]: 5.00 to 10.00 | GI50 (BA/F3-FLT3-ITD + D835Y): 0.0001 to 10 µM

Cn1cc(Nc2ncc(-c3ccc(CC(=O)Nc4cc(C(C)(F)F)ccn4)cc3)cn2)cn1 [Compound P-0147, N-[4-(1,1-difluoroethyl)-2-pyridyl]-2-[4-[2-[(1-methylpyrazol-4-yl)amino]pyrimidin-5-yl]phenyl]acetamide]
pIC50 [1]: 5.00 to 10.00 | pIC50 [2]: 5.00 to 10.00 | GI50 (BA/F3-FLT3-ITD + D835Y): 0.0001 to 10 µM

Cn1cnc(Nc2ncc(-c3ccc(CC(=O)Nc4cnc(Cl)c(C(F)(F)F)c4)cc3)cn2)c1 [Compound P-0148, N-[6-chloro-5-(trifluoromethyl)-3-pyridyl]-2-[4-[2-[(1-methylimidazol-4-yl)amino]pyrimidin-5-yl]phenyl]acetamide]
pIC50 [1]: 5.00 to 10.00 | pIC50 [2]: 5.00 to 10.00 | GI50 (BA/F3-FLT3-ITD + D835Y): 0.0001 to 10 µM
